Entries after “also recorded” stand apart in the source; their conditions may differ.
Assays:
c-kit in Kasumi-1 cells [1] = test: Western blot analysis of c-Kit in Kasumi-1 cells; type: cell-based
Excerpt: The results of the FACS analysis were confirmed with Western blot analysis (see FIG. 5). […] In contrast, 17-AAG had no effect of c-Kit protein levels.

c-kit in Kasumi-1 cells [2] = test: FACS-based c-kit degradation assay in Kasumi-1 cells; type: cell-based; details: about 18 h
Protocol: (§1) Two leukemia cell lines, HEL92.1.7 and Kasumi-1, were used for testing c-kit degradation induced by Hsp90 inhibitors of the invention. […] The cells were collected and centrifuged (SORVALL RT 6000D) at 1200 rpm for 5 min. The supernatants were discarded, and the cells were washed one time with 1×PBS. After centrifugation the cells were stained with FITC conjugated c-kit antibody (MBL International, Cat# K0105-4) in […] 1×PBS at 4° C. for 1 h. The samples were read and analysized with FACSCalibur flow cytometer (Becton Dicknson).

c-kit in HEL92.1.7 cells = test: FACS-based c-kit degradation assay in HEL92.1.7 cells; type: cell-based; details: about 18 h
Protocol: as §1

[3] = test system: RERF-LC-AI^IVP human lung tumor cells; test: RERF-LC-AI^IVP nude mouse xenograft model; type: in vivo; details: for Growth rate of RERF-LC-AI^IVP tumors: 5 times per week, 15 doses
Protocol: The human squamous non-small cell lung cancer cell line, RERF-LC-AI (RCB0444; S. Kyoizumi, et al., Cancer. Res. 45:3274-3281, 1985), was obtained from the Riken Cell Bank (Tsukuba, Ibaraki, Japan). […] FBS was obtained from American Type Culture Collection (Manassas, Va., USA) and all other reagents were obtained from Invitrogen Corp. (Carlsbad, Calif., USA). Approximately 4−5×10(6) cells that had been cryopreserved in liquid nitrogen were rapidly thawed at 37° C. and transferred to a 175 cm^2 tissue culture flask containing 50 ml of growth media and then incubated at 37° C. in a 5% CO2 incubator.
The growth media was replaced every 2-3 days until the flask became 90% confluent, typically in 5-7 days. To passage and expand the cell line, a 90% confluent flask was washed with 10 ml of room temperature phosphate buffered saline (PBS) and the cells were disassociated by adding 5 ml 1× trypsin-EDTA (Invitrogen) and incubating at 37° C. until the cells detached from the surface of the flask. To inactivate the trypsin, 5 ml of growth media was added and then the contents of the flask were centrifuged to pellet the cells. The supernatant was aspirated and the cell pellet was resuspended in 10 ml of growth media and the cell number determined using a hemocytometer. Approximately 1-3×10(6) cells per flask were seeded into 175 cm^2 flasks containing 50 ml of growth media and incubated at 37° C. in a 5% CO2 incubator. When the flasks reached 90% confluence, the above passaging process was repeated until sufficient cells had been obtained for implantation into mice.
Seven to eight week old, female Crl:CD-1-nuBR (nude) mice were obtained from Charles River Laboratories (Wilmington, Mass., USA). Animals were housed 4-5/cage in micro-isolators, with a 12 hr/12 hr light/dark cycle, acclimated for at least 1 week prior to use and fed normal laboratory chow ad libitum. Studies were conducted on animals between 8 and 12 weeks of age at implantation. […] Using a 27 gauge needle and 1 cc syringe, 0.1 ml of the cell suspension was injected subcutaneously into the flank of each nude mouse. Tumor volumes (V) were calculated by caliper measurement of the width (W), length (L) and thickness (T) of tumors using the following formula: V=0.5236×(L×W×T).
In vivo passaged RERF-LC-AI tumor cells (RERF-LC-AI^IVP) were isolated to improve the rate of tumor implantation relative to the parental cell line in nude mice. RERF-LC-AI tumors were permitted to develop in vivo until they reached approximately 250 mm^3 in volume, which required approximately 3 weeks following implantation. Mice were euthanized via CO2 asphyxiation and their exteriors sterilized with 70% ethanol in a laminar flow hood. Using sterile technique, tumors were excised and diced in 50 ml PBS using a scalpel blade. […]

[4] = test system: Her2, an Hsp90 client protein; test: Degradation of Her2 in BT-474 cells (Western blot); type: cell-based, Human; details: overnight
Protocol: Human high-Her2 breast carcinoma BT474 (HTB-20), SK-BR-3 (HTB-30) and MCF-7 breast carcinoma (HTB-22) from American Type Culture Collection, VA, USA were grown in Dulbecco's modified Eagle's medium with 4 mM L-glutamine and antibiotics (100 IU/ml penicillin and 100 ug/ml streptomycine; GibcoBRL). To obtain exponential cell growth, cells were trypsinized, counted and seeded at a cell density of 0.5×10^6 cells/ml regularly, every 3 days. All experiments were performed on day 1 after cell passage.
After treatment, each cytoplasmic sample was prepared from 1×10^6 cells by incubation of cell lysis buffer (#9803, cell Signaling Technology) on ice for 10 minutes. The resulting supernatant used as the cytosol fractions were dissolved with sample buffer for SDS-PAGE and run on a SDS-PAGE gel, blotted onto a nitrocellulose membrane by using semi-dry transfer. Non-specific binding to nitrocellulose was blocked with 5% skim milk in TBS with 0.5% Tween at room temperature for 1 hour, then probed with anti-Her2/ErB2 mAb (rabbit IgG, #2242, Cell Signaling) and anti-Tubulin (T9026, Sigma) as housekeeping control protein. HRP-conjugated goat anti-rabbit IgG (H+L) and HRP-conjugated horse anti-mouse IgG (H+L) were used as secondary Ab (#7074, #7076, Cell Signaling) and LumiGLO reagent, 20× Peroxide (#7003, Cell Signaling) was used for visualization.

[5] = test system: human tumor cell line MDA-MB-435S; test: MDA-MB-435S nude mouse xenograft model; type: in vivo; details: 300 mg/kg body weight IP, 5 times per week for 3 weeks
Protocol: FBS was obtained from Sigma-Aldrich Corp. (St. Louis, Mo., USA), and all other reagents were obtained from Invitrogen Corp. (Carlsbad, Calif., USA). Approximately 4−5×10(6) cells that had been cryopreserved in liquid nitrogen were rapidly thawed at 37° C. and transferred to a 175 cm^2 tissue culture flask containing 50 ml of growth media and then incubated at 37° C. in a 5% CO2 incubator. The growth media was replaced every 2-3 days until the flask became 90% confluent, typically in 5-7 days. To passage and expand the cell line, a 90% confluent flask was washed with 10 ml of room temperature phosphate buffered saline (PBS) and the cells were disassociated by adding 5 ml 1× Trypsin-EDTA (Invitrogen) and incubating at 37° C. until the cells detached from the surface of the flask. To inactivate the trypsin, 5 ml of growth media was added and then the contents of the flask were centrifuged to pellet the cells. The supernatant was aspirated and the cell pellet was resuspended in 10 ml of growth media and the cell number determined using a hemocytometer. […]
Six to eight week old, female Crl:CD-1-nuBR (nude) mice were obtained from Charles River Laboratories (Wilmington, Mass., USA). […] Tumor volumes (V) were calculated by caliper measurement of the width (W), length (L) and thickness (T) of tumors using the following formula: V=[…]×(L×W×T). […]

Hsp90 protein = test: Malachite Green assay of ATPase activity of Hsp90; type: biochemical; details: 37° C., 4 hours
Protocol: Hsp90 protein was obtained from Stressgen (Cat#SPP-770). Assay buffer: 100 mM Tris-HCl, Ph7.4, 20 mM KCl, 6 mM MgCl2. […] Malachite green reagent was added to the reaction. […] The plate was read by an ELISA reader with an absorbance at 620 nm.

Row | Structure (SMILES) | c-kit degradation (c-kit in Kasumi-1 cells [2]; 0.5 μM) | c-kit degradation (c-kit in HEL92.1.7 cells; 0.5 μM) | Degradation of Her2 ([4]; 0.5 μM) | Degradation of Her2 ([4]; 2 μM) | Degradation of Her2 ([4]; 5 μM) | c-kit degradation (c-kit in Kasumi-1 cells [2]; 0.05 μM) | c-kit degradation (c-kit in HEL92.1.7 cells; 0.05 μM) | also measured
1 | C=CCNC1=C2C[C@@H](C)C[C@H](OC)[C@H](O)[C@@H](C)/C=C(\C)[C@H](OC(N)=O)[C@@H](OC)/C=C\C=C(/C)C(=O)NC(=CC1=O)C2=O [Compound 17-AAG, 17-allylamino-17-demethoxygeldanamycin, reference compound] | could not induce c-kit degradation | could not induce c-kit degradation | – | – | – | – | – | c-Kit protein levels (Western blot) (c-kit in Kasumi-1 cells [1]; concentration not given): had no effect; Growth rate of RERF-LC-AI^IVP tumors ([3]; 75 mg/kg body weight i.p.): inhibited tumor growth; also recorded: decreased the growth rate; Maximum tolerated dose in nude mice ([3]; i.p., dosed at approximately the maximum tolerated dose): ~75 mg/kg body weight
2 | CCc1cc(-c2nnc(S)n2-c2cccc3ccccc23)c(O)cc1O [Compound 49, 3-(2,4-Dihydroxy-5-ethyl-phenyl)-4-(naphthalen-1-yl)-5-mercapto-[1,2,4] triazole] | – | – | partial degradated | complete degradation | complete degradation | – | – | Toxicity (effect on body weights) [5]: not associated with significant toxicity; Growth rate of MDA-MB-435S tumors ([5]; compared with 100 mg/kg 17-AAG): decreased the growth rate
3 | Oc1ccc(-c2nnc(S)n2-c2cccc3ccccc23)c(O)c1 [Compound 108, 3-(2,4-Dihydroxy-phenyl)-4-(naphthalen-1-yl)-5-mercapto-[1,2,4] triazole] | – | – | partially degradated | partially degradated | almost completely degraded | – | – | ATPase activity of Hsp90 (Hsp90 protein; 4 μM): significant inhibition; ATPase activity of Hsp90 (Hsp90 protein; 40 μM): even greater inhibition
4 | CCc1cc(-c2nnc(S)n2-c2ccc(OC)c3c2ccn3C(C)C)c(O)cc1O [Compound 188, 3-(2,4-Dihydroxy-5-ethyl-phenyl)-4-(1-isopropyl-7-methoxy-indol-4-yl)-5-mercapto-[1,2,4] triazole] | induced c-kit degradation | induced c-kit degradation | – | – | – | induced c-kit degradation | induced c-kit degradation | Growth rate of RERF-LC-AI^IVP tumors ([3]; 200 mg/kg body weight i.p.): inhibited tumor growth; also recorded: decreased the growth rate; Maximum tolerated dose in nude mice ([3]; mouse, in vivo, ip): ~200 mg/kg body weight
5 | CC(C)c1cc(-c2nnc(S)n2-c2ccc3c(ccn3C)c2)c(O)cc1O [Compound 221, 3-(2,4-dihydroxy-5-isopropyl-phenyl)-4-(N-methyl-indol-5-yl)-5-mercapto-[1,2,4] triazole] | induced c-kit degradation | induced c-kit degradation | – | – | – | induced c-kit degradation | induced c-kit degradation | c-Kit protein levels (Western blot) (c-kit in Kasumi-1 cells [1]; 100 nM): induced the degradation of c-Kit; c-Kit protein levels (Western blot) (c-kit in Kasumi-1 cells [1]; 400 nM): induced the degradation of c-Kit

From patent US8901308B2, “Triazole compounds that modulate Hsp90 activity” (Synta Pharmaceuticals Corp., priority 2004, dated 2014)
